Values joined by “and” are separate entries in the source; they are usually repeats but may differ in a detail not shown here. Identical values can stand only once.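 Cells were grown in 96-well plates and exposed to each compound for 48 hours at five concentrations; endpoints were interpolated linearly between bracketing concentrations, or set to the highest concentration if not reached. Definition used: TGI = concentration required for complete inhibition of growth.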
Experiments:
Assay in all cases: growth of human tumour cells (NCI), 48 h
BT-549 breast = test system: BT-549 breast
NCI-H226 lung = test system: NCI-H226 lung
COLO 205 colon = test system: COLO 205 colon
NCI/ADR-RES ovarian = test system: NCI/ADR-RES ovarian
A498 renal = test system: A498 renal
HOP-92 NSCLC = test system: HOP-92 NSCLC
MDA-MB-435 = test system: MDA-MB-435
SN12C renal = test system: SN12C renal
MDA-MB-231 breast = test system: MDA-MB-231 breast
SW-620 colon = test system: SW-620 colon
SF-539 CNS = test system: SF-539 CNS
NCI-H460 lung = test system: NCI-H460 lung
HCT-116 colon = test system: HCT-116 colon
HL-60(TB) leukemia = test system: HL-60(TB) leukemia
SK-MEL-28 melanoma = test system: SK-MEL-28 melanoma
CAKI-1 renal = test system: CAKI-1 renal
HOP-62 NSCLC = test system: HOP-62 NSCLC
A549 NSCLC = test system: A549 NSCLC
RXF 393 renal = test system: RXF 393 renal
TK-10 renal = test system: TK-10 renal

Structure (SMILES)	TGI (BT-549 breast)	TGI (NCI-H226 lung)	TGI (COLO 205 colon) [µM]	TGI (NCI/ADR-RES ovarian) [µM]	TGI (A498 renal) [µM]	TGI (HOP-92 NSCLC) [µM]	TGI (MDA-MB-435) [µM]	TGI (SN12C renal) [µM]	TGI (MDA-MB-231 breast)	TGI (SW-620 colon)	TGI (SF-539 CNS) [µM]	TGI (NCI-H460 lung)	TGI (HCT-116 colon)	TGI (HL-60(TB) leukemia) [µM]	TGI (SK-MEL-28 melanoma) [µM]	TGI (CAKI-1 renal) [µM]	TGI (HOP-62 NSCLC) [µM]	TGI (A549 NSCLC) [µM]	TGI (RXF 393 renal)	TGI (TK-10 renal) [µM]
O=C1SS(=O)c2ccccc21 (centres undefined)	> 100 µM	> 100 µM	> 100	> 100	> 100	> 100	> 100	> 100	> 100 µM	> 100 µM	> 100	> 100 µM	> 100 µM	> 100	> 100	> 100	> 100	> 100	–	–
O=C1CC(O)c2c(Br)sc(Br)c21 (centres undefined)	63.1 µM	–	31	> 100	39.6	43.6	18.5	34.2	29.9 µM	4.53 µM	21.5	34.8 µM	26.7 µM	14.9	30.1	4.24	24.5	43.4	5.51 µM	13.3
CN(C)c1ccc(/C=c2/c3ccccc3n3nc4ccccc4c23)cc1	71.5 µM	–	50.9	> 100	67	90.7	> 100	> 100	> 100 µM	> 100 µM	84.8	> 100 µM	> 100 µM	> 100	> 100	> 100	> 100	> 100	66.8 µM	> 100
O=C1C=C(Sc2ccccc2)c2nccc3c2c1nc1ccccc13	31.4 µM	> 100 µM	31.5	> 100	–	42.3	31.2	32.2	38 µM	29.7 µM	31.1	84.5 µM	30.3 µM	4.29	38.8	> 100	32.2	> 100	–	> 100
Cc1ccc(C)n1-n1c(Cc2ccccc2)n[nH]c1=O	> 100 µM	> 100 µM	> 100	> 100	> 100	–	> 100	> 100	> 100 µM	> 100 µM	–	> 100 µM	> 100 µM	–	> 100	> 100	> 100	> 100	> 100 µM	> 100
FC(F)(Sc1ccccn1)c1nc2ccccc2o1	> 100 µM	> 100 µM	> 100	> 100	> 100	> 100	> 100	> 100	> 100 µM	> 100 µM	> 100	> 100 µM	> 100 µM	–	> 100	> 100	> 100	> 100	> 100 µM	> 100
CC(C)=NN/C(=N\S(=O)(=O)c1ccc(C)cc1)Nc1ccc(Cl)cc1	> 100 µM	> 100 µM	> 100	> 100	> 100	> 100	> 100	> 100	> 100 µM	> 100 µM	–	> 100 µM	> 100 µM	> 100	> 100	> 100	> 100	> 100	–	> 100
CNC(=O)c1n[nH]nc1Sc1c([N+](=O)[O-])ncn1C	> 100 µM	–	> 100	> 100	> 100	> 100	> 100	> 100	> 100 µM	> 100 µM	> 100	> 100 µM	> 100 µM	–	> 100	> 100	> 100	> 100	> 100 µM	> 100
CC(=O)OCC(OC(C)=O)C(OC(C)=O)C(OC(C)=O)C(C=NN(C(C)=O)S(=O)(=O)c1ccc(/C=C2\NC(=O)N(C)C2=O)cc1)OC(C)=O (centres undefined)	49.4 µM and > 100 µM	96.5 µM and > 100 µM	> 100	> 100	> 100	–	> 100	> 100	> 100 µM and 96.4 µM	83.7 µM and 97.7 µM	56.5	50.3 µM and 56.5 µM	47.2 µM and 37.4 µM	–	–	> 100	> 100	> 100	34.4 µM and 52.1 µM	40.4
N#Cc1c(O)c(N=Nc2ccccc2F)c(=O)n2c1[nH]c1ccccc12	> 100 µM	> 100 µM	> 100	> 100	> 100	60.3	> 100	> 100	90.8 µM	> 100 µM	> 100	> 100 µM	> 100 µM	> 100	> 100	–	> 100	> 100	> 100 µM	> 100
CC(=O)NC(C)(C)C1CC=C(C)CC1 (centres undefined)	> 100 µM	> 100 µM	> 100	> 100	> 100	–	> 100	> 100	> 100 µM	> 100 µM	> 100	> 100 µM	> 100 µM	> 100	> 100	> 100	> 100	> 100	> 100 µM	> 100
O=C(O)CN1CCN2CCOCCOCCN(CC1)CCN(CC(=O)O)CC2	> 100 µM	> 100 µM	> 100	> 100	> 100	> 100	> 100	> 100	> 100 µM	> 100 µM	> 100	> 100 µM	> 100 µM	–	> 100	> 100	> 100	> 100	–	> 100
